{"source": "patent US5871946A", "about": "“Method for determining activity of enzymes in metabolically active whole cells” (priority 1995, dated 1999)", "key": {"amino peptidase": {"test_system": "amino peptidase", "test": "Aminopeptidase activity in acute lympholytic Ficoll prepared lymphocytes", "format": "cell-based", "conditions": "FIG. 4B", "source_text": "The cell's ability to fight off an invader lies within its genetics and therefore cell type. The \"readiness\" however of any genetically capable group of cells to defend is different. A measure of this \"readiness\" is manifest in the available proteolytic enzymes contained within vacuoles or on the surface of the cell. The assay compound hydrolysis rate increases with increased mass of enzymes giving a picture of immune competence both in number of cells and activity level. […] Images were generated using Universal Imaging."}, "MONOCYTES": {"test_system": "MONOCYTES", "test": "Disease to normal ratio of enzyme activity, monocytes (Table 5)", "format": "cell-based, human", "source_text": "(§1) A normal in house adult donor pool was drawn, recording sex and determining that no known disease state was present at the time of sample draw. Criteria for rejecting samples included patients under medication, patients with infection or inflammation of any type, colds and flu as well as any known medical illness such as cancer, heart ailment and high blood pressure. A donor list of 75 patients has been developed and a mean and 2 sd range established. A subgroup of \"super normals\" was developed from this list by examining the 75 patients to determine which group falls closest to the mean for all enzymes in all cell types tested. These patients were used as the \"wellness index\" or best group of \"normalcy\" patients. If a study required the use of children or newborns then this same format was used to develop a data base for these age groups."}, "LYMPHOCYTES": {"test_system": "LYMPHOCYTES", "test": "Disease to normal ratio of enzyme activity, lymphocytes (Table 5)", "format": "cell-based, human", "source_text": "as §1"}, "[1]": {"test": "Modulators of sensitivity of rhodamine 110 substrates", "format": "cell-based", "conditions": "1 mM", "source_text": "Modulators are components used to […] the sensitivity of the enzyme for the leaving group. The modulators speed up or slow down the activity of an enzyme by changing the active site. […] Preferred modulators for particular enzymes are included in Table 1."}, "[2]": {"test": "Effect of sodium chloride on dipeptide reagent", "format": "cell-based", "conditions": "7 mM, pH range 6.5 to 8.7", "source_text": "Inhibitors and poisons (or toxins) are components that can be added to reduce the activity of non-targeted enzymes that provide competing reactions for the leaving group. Inhibitors are usually very selective for a particular enzyme. For example, EDTA only works with enzymes requiring Ca^+2, Mg^+2 and some other metals. […] Preferred inhibitors for particular enzymes are included in Table 1."}}}
{"smiles": "CC(C)C[C@H](N)C(=O)Nc1ccc2c(c1)Oc1cc(NC(=O)[C@@H](N)CC(C)C)ccc1C21OC(=O)c2ccccc21", "note": "[LEU, (Leu)2 Rho 110]", "values": [{"measurement": "enzymatic activity", "setting": "amino peptidase", "value": "lost their enzymatic activity"}, {"measurement": "Ratio of disease to normal", "setting": "MONOCYTES; Dermatomyositis, monocytes", "value": 1.35}, {"measurement": "Ratio of disease to normal", "setting": "MONOCYTES; Inflam. Bowel Dis., monocytes section", "value": 1.13}, {"measurement": "Ratio of disease to normal", "setting": "MONOCYTES; JRA, monocytes", "value": 1.44}, {"measurement": "Ratio of disease to normal", "setting": "MONOCYTES; Lupus, monocytes", "value": 44.44}, {"measurement": "Ratio of disease to normal", "setting": "LYMPHOCYTES; Dermatomyositis", "value": 1.36}, {"measurement": "Ratio of disease to normal", "setting": "LYMPHOCYTES; Inflam. Bowel Dis.", "value": 1.34}, {"measurement": "Ratio of disease to normal", "setting": "LYMPHOCYTES; Lupus", "value": 1.93}, {"measurement": "Ratio of disease to normal", "setting": "LYMPHOCYTES; Rheumatic Fever", "value": 1.05}]}
{"smiles": "O[C@H](CS)[C@@H](O)CS", "note": "[dithioerythritol (DTE), dithioerythritol]", "values": [{"measurement": "effect on sensitivity of the leaving group for the enzyme", "setting": "[1]; Ala-Gly and Leu-Gly substrates", "value": "does not change the sensitivity"}, {"measurement": "effect on sensitivity of substituted rhodamine 110 substrates", "setting": "[1]; Pro, Gly, Gln-Ser, Val-Lys-Val-Lys, Ala-Ala, Ala-Ala-Ala-Ala substrates", "value": "decreases the sensitivity"}]}
{"smiles": "[Cl-].[Na+]", "note": "[sodium chloride]", "values": [{"measurement": "inhibitory effect on dipeptide reagent", "setting": "[2]", "value": "slightly inhibitory effect"}]}
